Data taken from publication PMC8038991, “R-catcher, a potent molecular tool to unveil the arginylome” (Cellular and Molecular Life Sciences: CMLS, 2021).
Entries after “also recorded” stand apart in the source; their conditions may differ. Like-named read-outs stand apart in the source and are kept apart here. Peptide text beside a SMILES is read from it.

Columns and labels:
R-catcher [1] = test: Small-scale R-catcher pulldown of known arginylated proteins; format: binding, human; details: for pulldown by R-catcher, overexpressed substrates: HEK293 cells, R-catcher on tactin beads, immunoblot
Description: (§1) For small-scale R-catcher pull-down assays, 300 µg of purified R-catcher was conjugated with 120 µl of Strep-Tactin sepharose resin by incubating overnight at 4 °C. To test R-catcher’s ability to capture known arginylated proteins, such as R-BiP, R-PDI, R-nsP4 and R-RGS4, plasmids encoding Ub-X-(BiP, PDI and nsP4) or MX-RGS4 (X = Arg or Val) were transiently transfected into HEK293 cells. After 24 h, cells were treated with 10 µM MG132 and 100 nM thapsigargin for another 24 h. Cells were harvested and lysed in hypotonic buffer and 300 µg total protein was incubate with 25 µl R-catcher-sepharose resin in binding buffer (20 mM HEPES pH 7.9, 0.05% Tween 20, 10% glycerol, 0.2 M KCl, protease inhibitor and phosphatase inhibitor) for 3 h with gentle rotation at 4 °C. After three washes with binding buffer, bound proteins were dissociated with 2 × SDS sample buffer and boiling at 100 °C and subjected to immunoblotting using anti-myc or flag antibodies.

[2] = tested on: HeLa cell extracts stimulated with MG132 plus TG; test: Large-scale R-catcher pulldown coupled to silver staining and LC-MS/MS; parameters: species or system human; details: for presence in R-catcher working list: LC-MS/MS working list
Description: For large-scale R-catcher pulldown assays, HeLa cells were treated with 5 µM MG132 and 100 nM thapsigargin for 24 h. Cells were lysed in hypotonic buffer and 10 mg total was incubated with 750 µl R-catcher-sepharose beads for 3 h at 4 °C after pre-clearing with D129A mutant R-catcher-sepharose beads for 3 h at 4 °C. After three washes with binding buffer, bound proteins were eluted with binding buffer containing 20 mM D-biotin. To remove R-catcher, the eluent was dialyzed using 20 kDa cut-off dialysis membrane in binding buffer containing 3.5 M MgCl2 overnight followed by another overnight dialysis in distilled-deionized water. The dialyzed eluent was lyophilized overnight and dried powder was dissolved in 100 µl LC/MS solubilizer for silver staining and mass spectrometry analysis.
Protein samples solubilized in Invitrosol LC/MS solubilizer (Invitrogen) as following by manufacturer protocol. For removal of incompatible buffer components, protein samples filtrate with 10 K MW ultrafilter for complete digestion. For preparing trypsinization of samples, the retentates were dissolved in 50 mM of ammonium bicarbonate (pH 8.0) untill it reach 1 μg/μL of final concentration. The samples treated with 10 mM DTT at 60 °C for 45 min. Following 20 mM IAA addition, the final mixture incubated in dark for 45 min at 25 °C. 1:50 ratio of Trypsin was added on mixture. The mixture incubated overnight at 37 °C. Final digested samples dried with speed-vacuum. Samples re-dissolved in 20 μL of water containing 0.1% formic acid for LC–MS/MS analysis.
Peptides were analyzed using a LC–MS/MS system consisting of an Easy nLC 1000 (Thermo Fisher scientific) and an Orbitrap Fusion Lumos mass spectrometer (Thermo Fisher Scientific) equipped with a nano-electrospray source (EASY-Spray Sources, Thermo Fisher Scientific). Peptides were trapped 75 μm × 2 cm C18 pre-column (nanoViper, Acclaim PepMap100, Thermo Fisher Scientific) before being separated on an analytical C18 column (75 μm × 50 cm PepMap RSLC, Thermo Fisher Scientific) at a flow rate of 300 nL/min. The mobile phases A and B were composed of 0 and 100% acetonitrile containing 0.1% formic acid, respectively. The LC gradient began with 5% B and was ramped to 8% B for 1 min, 10% B for 16 min, to 40% B for 79 min, to 80% B for 1 min, and remained at 80% B over 8 min. Finally, it was ramped to 5% B for another 5 min. The column was re-equilibrated with 2% B for 10 min before the next run. The voltage applied to produce an electrospray was 1900 V. During the chromatographic separation, the Orbitrap Fusion Lumos was operated in data-dependent mode, automatically switching between MS1 and MS2. The MS data were acquired using the following parameters: Full-scan MS1 spectra (400–1600 m/z) were acquired in the Orbitrap for a maximum ion injection time of 100 ms at a resolution of 120,000 and an automatic gain control (AGC) target value of 4.0e5. MS2 spectra were acquired in the Orbitrap mass analyzer at resolution of 30,000 with high-energy collision dissociation (HCD) of 27% normalized collision energy and AGC target value of 5.0e4 with maximum ion injection time of 54 ms. Previously fragmented ions were excluded for 30 s.
MS/MS spectra were analyzed using the following software analysis protocols with the Uniprot human DB (2019). The reversed sequences of all proteins were appended into the database for calculation of false discovery rate (FDR). ProLucid was used to identify the peptides, a precursor mass error of 5 ppm, and a fragment ion mass error of 200 ppm. Trypsin was selected as the enzyme, with one potential missed cleavage. Carbamidomethylation at cystein was chosen as static modifications. Oxidation at methionine was chosen as variable modification. The output data files were filtered and sorted to compose the protein list using the DTASelect (The Scripps Research Institute, USA) with two and more peptides assignments for a protein identification and a false positive rate less than 0.01. […]

[3] = tested on: ZZ wild type, ZZ (N132D) and ZZ (N132Q); test: Isothermal titration calorimetry, any ZZ domain (wild type, N132D, N132Q); format: binding, human; details: ITC, 25 °C
Description: (§2) For isothermal titration calorimetry (ITC), GST-fused p62 (122–175) wild type and mutants (N132Q and N132D) were expressed in E. coli BL21 (DE3) RIL competent cells in Luria–Bertani media with 0.1 mM Isopropyl-β-D-thio-galactoside (IPTG) at 18 °C. Cells were collected and sonicated in a B buffer (50 mM Tris–HCl pH 7.5, 200 mM NaCl) containing 3 mM β-mercaptoethanol (β-ME). Cell lysates were centrifuged at 18,000 × g for 1 h to remove cell debris, and this supernatant was loaded onto Glutathione Sepharose™ 4 Fast Flow resin and washed with B buffer. GST-fused proteins were eluted with 20 mM glutathione in an elution buffer (100 mM Tris–HCl pH 7.5, 200 mM NaCl, and 3 mM β-ME). The eluted samples were dialyzed in a dialysis buffer (50 mM Tris–HCl pH 7.5, 50 mM NaCl, and 3 mM β-ME) with or without TEV protease. These samples were loaded onto anion exchange column (HiTrap Q HP, GE Healthcare) and unbounded samples were collected and loaded onto size exclusion chromatography (HiLoad ™ 25/600 Superdex™ 75 pg column, GE healthcare) with the B buffer containing 0.2 mM Tris(2-carboxyethyl)phosphine (TCEP).
(§3) Purified proteins were concentrated to 0.05 mM. 4-mer peptides as injectant were resolved in B buffer to a final concentration of 1 mM. ITC measurement was performed at 25 °C on a Microcal Auto-ITC200.

[4] = target: T1, wild type ZZ122-175 (p62) (Homo sapiens, UniProt Q13501); test: Isothermal titration calorimetry, wild type ZZ (Fig. 3b); details: ITC, wild type ZZ122-175, 25 °C; read-out: binding affinity (KD)
T1 construct: GST-fused p62 (122–175) wild type and mutants (N132Q and N132D) were expressed in E. coli; GST (N); made in house; host or cells: E. coli BL21 (DE3) RIL

[5] = target: T2, N132D mutant ZZ122-175 (p62) (Homo sapiens, UniProt Q13501, N132D); test: Isothermal titration calorimetry, N132D ZZ; details: ITC, N132D ZZ122-175, 25 °C; read-out: binding affinity (KD)
T2 construct: GST-fused p62 (122–175) wild type and mutants (N132Q and N132D) were expressed in E. coli; GST (N); made in house; host or cells: E. coli BL21 (DE3) RIL

[6] = target: T3, GST-ZZ122-175 domain (p62) (Homo sapiens, UniProt Q13501); test: Isothermal titration calorimetry, GST-ZZ122-175 (Fig. 2e); format: binding
T3 construct: GST-fused p62 (122–175) wild type and mutants (N132Q and N132D) were expressed in E. coli; made in house; host or cells: E. coli BL21 (DE3) RIL
Description: as §2, §3

R-catcher [7] = test: R-catcher pulldown of putative arginylated ER proteins, HeLa; format: binding, human; details: 5 µM MG132 plus 100 nM TG, RA competition, Fig. 6a
Description: as §1
Plasmids encoding the proteins were transiently transfected to HeLa cells for 24 h and stimulated with 5 µM MG132 plus 100 nM TG for another 24 h. Cell lysates were incubated with R-catcher immobilized on tactin beads for 3 h. After wash, bound proteins were eluted with 2 × SDS sample buffer followed by boiling at 100 °C for 10 min and visualized by western blot analysis. b R-catcher pulldown assays to validate ATE1-dependent arginylation of […]1, PRDX4, FBLN1 and CLUS. Plasmids encoding […]1, PRDX4, FBLN1 and CLUS were transiently transfected into + / + and ATE1^−/− MEFs for 24 h and stimulated with 5 µM MG132 plus 100 nM TG for another 9 h. Cell lysates were subjected to R-catcher pulldown, and bound proteins were detected by western blot analysis. c R-catcher pull-down assays to evaluate if the arginylation of FBNL1, SERPINH1, CLUS and PRDX4 is induced in response to MG132 plus thapsigargin. d X-peptide pulldown assays to confirm no interaction of R-catcher with Nt-Ala19 of SERPINH1 peptides and Nt-Trp38 of PRDX4 peptides. X-peptides where X is A19 (SignalP predicted P1’ site), E20 (next possible P1’ site predicted by PrediSi) or R19 (Arginylated form of Glu) for SERPINH1 and W38 (SignalP predicted P1’ site), E39 (next possible P1’ site predicted by PrediSi) or R38 (Arginylated form) for PRDX4. Biotinylated X-peptides immobilized on streptavidin agarose beads were incubated with affinity-purified GST-ZZ ([…]). Bound GST-ZZ (N132D) was detected by immunoblotting. e Identification of arginylated sites employing mutational analysis. Predicted P1’ sites of SERPINH1, PRDX4, CLUS and FBLN1 were substituted to Gly, and the inhibitory effect of the mutation on binding with R-catcher was examined by performing R-catcher pulldown assays

[8] = target: T4, N132Q mutant ZZ122-175 (p62) (Homo sapiens, UniProt Q13501, N132Q); test: biochemical; format: binding
T4 construct: GST-fused p62 (122–175) wild type and mutants (N132Q and N132D) were expressed in E. coli; GST (N); made in house; host or cells: E. coli BL21 (DE3) RIL
T4 sequence (Q13501 122-175 N132Q): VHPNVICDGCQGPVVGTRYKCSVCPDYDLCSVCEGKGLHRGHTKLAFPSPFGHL

T1 sequence (Q13501 122-175): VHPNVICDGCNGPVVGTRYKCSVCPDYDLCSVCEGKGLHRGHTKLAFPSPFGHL
T3 sequence (Q13501 122-175): as above
T2 sequence (Q13501 122-175 N132D): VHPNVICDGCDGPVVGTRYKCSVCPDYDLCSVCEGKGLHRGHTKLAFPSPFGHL

“BiP: ER chaperone BiP, arginylated (2nd Glu)” was tested, and the “pulldown by R-catcher, overexpressed substrates” value (R-catcher [1]; Fig. 4d) was “could pulldown”, the “pulldown by R-catcher, endogenous” value (R-catcher [1]; HeLa, MG132 plus TG, Fig. 4e) was “could pulldown” and the “presence in R-catcher working list” value [2] was “among the known arginylated proteins”.

For LIFS [peptide], the “affinity for ZZ domains” value [3] was “no affinity”.

In the case of CC[C@H](C)[C@H](NC(=O)[C@@H](N)Cc1ccc(O)cc1)C(=O)N[C@@H](Cc1ccccc1)C(=O)N[C@@H](CO)C(=O)O [YIFS] (H-YIFS-OH), the Kd [4] is reported as 20.7 µM, the Kd [5] is reported as 107 µM and the Kd ([6]; ITC, (GST-)ZZ122-175 wild type, 25 °C, read-out: KD) is reported as 16.1 µM.

FKBP10: FK506-binding protein 10 was tested, and the “binding with R-catcher, Nt-Arg dependence” value (R-catcher [7]) was “Nt-Arg-dependent binding with R-catcher; also recorded: unusually high binding affinity for R-catcher”.

In the case of IIFS [peptide], the “affinity for ZZ domains” value [3] is reported as “no affinity”.

In the case of ENPL: endoplasmin, the “binding with R-catcher, Nt-Arg dependence” value (R-catcher [7]) is reported as “no significant binding affinity for R-catcher”.

For “R-catcher: ZZ122-175^N132D tagged with twin strepII-His6 at the N-terminus, approximately 9 kDa protein”, the “number of known and putative arginylated proteins captured (final working list)” value ([2]; HeLa, MG132 + TG) was 59 proteins, the “number of proteins in WT list” value ([2]; no dipeptide, LC-MS/MS, Fig. 5c) was 83 proteins and the “number of proteins in AR list” value ([2]; with AR dipeptide competition) was 163 proteins. For the same compound, the “number of proteins in RA list” value ([2]; with RA dipeptide competition) was 42 proteins.

With FIFS [peptide] the “affinity for ZZ domains” value [3] was “no affinity”.

CC[C@H](C)[C@H](NC(=O)[C@@H](N)CCCNC(=N)N)C(=O)N[C@@H](Cc1ccccc1)C(=O)N[C@@H](CO)C(=O)O [RIFS] (H-RIFS-OH) showed a Kd [4] of 6.9 µM, a Kd [8] of 21.4 ± 9.51 µM and a Kd [5] of 2.85 µM. The Kd [6] was 4.39 ± 0.449 µM.

In the case of “PDI: protein disulfide isomerase, arginylated (2nd Asp)”, the “binding affinity for R-catcher” value (R-catcher [1]; Fig. 4d, discussion) is reported as “low binding affinity”, the “pulldown by R-catcher, overexpressed substrates” value (R-catcher [1]; Fig. 4d) is reported as “could pulldown” and the “presence in R-catcher working list” value [2] is reported as “not detected in our list”.

R-PDI: arginylated PDI was tested, and the “R-PDI binding to R-catcher, preliminary” value (R-catcher [1]; preliminary result, N-termini enhancing methods) was “detected R-PDI binding to R-catcher”.

With TIFS [4-mer peptide] the “affinity for ZZ domains” value [3] was “no affinity”.
